Earlier results as cited in patent US20190175610A1 (priority 2017, published 2019).

Details: athletes, during exercise after oral supplementation

C[N+](C)(C)C[C@H](O)CC(=O)[O-] [L-carnitine, γ-trimethylamino-β-hydroxybutyrate]
benefit on fatty acid metabolism: no benefit
